Among the test systems are IGROV-1; RXF 393; Hs-578T; UACC-257; K562; SF-295; OVCAR-3; NCI-H23; HCC 2998; MCF7; SK-MEL-5; SW-620; SR; SK-OV-3; HCT-15; NCI-H522; SNB-19; NCI-H226; DU-145; T47D.
Common to all, as to assay: NCI tumour cell line growth inhibition, 48 h

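Interpolation was linear, between the two tested concentrations surrounding the appropriate level; five concentrations were tested over 48 hours in 96-well plates. Abbreviation: GI50, concentration required for 50% inhibition of growth.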 Calls of active or inactive are those of the source. No stated cut-off is given here; in the data, active = GI50 up to about 1.1 µM and inactive = higher. Some results are limits rather than exact numbers.

For `CC(=O)O[C@@]12CO[C@@H]1C[C@H](O)[C@@]1(C)C(=O)[C@H](O)C3=C(C)[C@@H](OC(=O)[C@H](O)[C@@H](NC(=O)OC(C)(C)C)c4ccccc4)C[C@@](O)([C@@H](OC(=O)c4ccccc4)[C@H]21)C3(C)C` [DOCETAXEL], the GI50 in the test with IGROV-1 was < 0.01 µM (active); in the test on RXF 393, 0.242 µM (active); with Hs-578T it was 0.00104 µM (active); with UACC-257 it was 0.455 µM (active); in the test with K562 it was < 0.01 µM (active); with SF-295, 0.0107 µM (active). Also, the GI50 in the test with OVCAR-3 is < 0.01 µM (active); in the test with NCI-H23 it was < 0.01 µM (active); in the test with HCC 2998, < 0.01 µM (active); in the test with MCF7, 0.000409 µM (active); in the test with SK-MEL-5, < 0.01 µM (active); in the test with SW-620 it was < 0.01 µM (active). For the same compound, the GI50 in the test with SR is < 0.01 µM (active); with SK-OV-3, 0.0132 µM (active); with HCT-15 it was 0.0493 µM; in the test with NCI-H522, < 0.01 µM (active); in the test on SNB-19 it was 43.2 µM (inactive).
For the compound `COc1ccc(P2(=S)Oc3ccccc3-c3ccccc3O2)cc1`, the GI50 with IGROV-1 was 0.394 µM (active); in the test with NCI-H226 it was 7.1 µM (inactive); with Hs-578T it was 0.466 µM (active); in the test on UACC-257, 1.35 µM (inactive); with K562, 0.196 µM (active); in the test with SF-295, 0.296 µM (active). Further, the GI50 in the test with OVCAR-3 is 0.226 µM (active); with DU-145, 0.542 µM (active); in the test on NCI-H23, 0.579 µM (active); with HCC 2998 it was 0.443 µM (active); with MCF7 it was 0.377 µM (active); in the test on SK-MEL-5, 0.365 µM (active). The GI50 with SW-620 was 0.423 µM (active); with HCT-15, 0.48 µM; in the test with NCI-H522, 0.193 µM (active); with T47D, 36.1 µM (inactive); in the test with SNB-19 it was 0.521 µM (active).
In the case of `CO[C@@H]1C[C@H]2N3CC[C@@]2(c2cc4c(cc2C3)OCO4)[C@H]2O[C@@H]12`, the GI50 was > 100 µM (inactive) in the test on IGROV-1; 1.34 µM (inactive) in the test on NCI-H226; > 100 µM (inactive) with RXF 393; > 100 µM (inactive) with Hs-578T; > 100 µM (inactive) with UACC-257; > 100 µM (inactive) with K562. Also, the GI50 in the test on SF-295, with OVCAR-3, in the test with DU-145, with NCI-H23, with HCC 2998 and in the test with MCF7 was > 100 µM (inactive) in each case. Moreover, the GI50 was 0.157 µM (active) in the test on SK-MEL-5; > 100 µM (inactive) with SW-620; > 100 µM (inactive) with SK-OV-3; greater than 100 µM in the test on HCT-15; > 100 µM (inactive) with NCI-H522; > 100 µM (inactive) in the test on SNB-19.
Regarding `CC1(C)OC1CC/C(=C/CBr)CBr` (stereo not given), the GI50 in the test on IGROV-1 is 13.8 µM (inactive); in the test on NCI-H226, 21.7 µM (inactive); with RXF 393 it was 17 µM (inactive); in the test on Hs-578T, 17.5 µM (inactive); in the test on UACC-257 it was 14.9 µM (inactive); in the test on K562, 15.8 µM (inactive). Moreover, the GI50 in the test on SF-295 was 14.1 µM (inactive); with OVCAR-3, 18.7 µM (inactive); in the test with DU-145 it was 20.9 µM (inactive); in the test on NCI-H23 it was 15.5 µM (inactive); in the test on HCC 2998, 16 µM (inactive); with MCF7, 15 µM (inactive). The GI50 was 14.1 µM (inactive) with SK-MEL-5; 15 µM (inactive) in the test on SW-620; 13.8 µM (inactive) in the test with SR; 19 µM (inactive) in the test on SK-OV-3; 10.3 µM (inactive) with NCI-H522; 15.2 µM (inactive) with SNB-19.
For `NC1CC(=O)c2cc(Cl)sc21` (stereo not given), the GI50 in the test on IGROV-1 is > 100 µM (inactive); with NCI-H226, > 100 µM (inactive); in the test on RXF 393, > 100 µM (inactive); in the test on Hs-578T, > 100 µM (inactive); in the test on UACC-257 it was > 100 µM (inactive); with K562 it was 0.929 µM (active). In addition, the GI50 in the test with SF-295, in the test with OVCAR-3, with DU-145, with NCI-H23, in the test with SK-MEL-5 and in the test with SW-620 was > 100 µM (inactive) in each case. The GI50 in the test on SK-OV-3 was > 100 µM (inactive); in the test on HCT-15 it was greater than 100 µM; with NCI-H522 it was > 100 µM (inactive); in the test with T47D, > 100 µM (inactive); in the test with SNB-19 it was > 100 µM (inactive).
Take `O=c1oc2ccc3ccccc3c2cc1-c1cn2ccccc2n1`: the GI50 is > 100 µM (inactive) in the test on IGROV-1; > 100 µM (inactive) in the test on NCI-H226; > 100 µM (inactive) in the test on RXF 393; 35.6 µM (inactive) in the test with Hs-578T; > 100 µM (inactive) in the test on UACC-257; > 100 µM (inactive) with K562. For the same compound, the GI50 in the test on SF-295 was 37.2 µM (inactive); in the test with OVCAR-3, > 100 µM (inactive); in the test with DU-145, > 100 µM (inactive); in the test with NCI-H23, > 100 µM (inactive); in the test with HCC 2998 it was > 100 µM (inactive); in the test on SK-MEL-5 it was > 100 µM (inactive). Moreover, the GI50 in the test on SW-620 was > 100 µM (inactive); in the test with SR it was > 100 µM (inactive); with SK-OV-3 it was 39.4 µM (inactive); in the test on HCT-15, greater than 100 µM; in the test with NCI-H522, 26.3 µM (inactive); in the test on T47D it was > 100 µM (inactive).
As to `N#Cc1c(SCc2ccccc2)nc(-c2ccccc2)[nH]c1=S`, the GI50 is 29.9 µM (inactive) with IGROV-1; 26.5 µM (inactive) in the test on NCI-H226; 19.2 µM (inactive) in the test with RXF 393; 32.1 µM (inactive) in the test on Hs-578T; 35.2 µM (inactive) in the test with UACC-257; 31.6 µM (inactive) with K562. The GI50 with SF-295 was 22.4 µM (inactive); in the test with OVCAR-3, 18.5 µM (inactive); in the test with DU-145, 42 µM (inactive); with NCI-H23, 18.2 µM (inactive); in the test on HCC 2998, 19.3 µM (inactive); with MCF7 it was 26.1 µM (inactive). Also, the GI50 was 19.3 µM (inactive) in the test on SK-MEL-5; 25.6 µM (inactive) in the test with SW-620; 23.4 µM (inactive) with SK-OV-3; 19.8 µM in the test with HCT-15; 22.4 µM (inactive) in the test with T47D; 29.9 µM (inactive) in the test with SNB-19.
With `C=C1C(=O)O[C@@H]2[C@H]1CC[C@H](C)[C@]1(O)CCC(=O)[C@@]21C` [CORONOPILIN], the GI50 with IGROV-1, in the test with NCI-H226, with RXF 393, in the test with Hs-578T, in the test with K562 and with SF-295 was > 10 µM (inactive) each time. Moreover, the GI50 was > 10 µM (inactive) in the test with OVCAR-3; 4.16 µM (inactive) in the test on NCI-H23; > 10 µM (inactive) in the test with HCC 2998; > 10 µM (inactive) in the test on MCF7; > 10 µM (inactive) in the test with SK-MEL-5; > 10 µM (inactive) with SW-620. Besides, the GI50 in the test with SR was 5.73 µM (inactive); in the test on SK-OV-3 it was > 10 µM (inactive); in the test with HCT-15, greater than 10 µM; in the test with T47D, > 10 µM (inactive); in the test on SNB-19 it was > 10 µM (inactive).

The values are drawn from ChEMBL document CHEMBL1201862, “PubChem BioAssay data set” (2004).
